Article PMC3961306, “Comparison of the Cancer Gene Targeting and Biochemical Selectivities of All Targeted Kinase Inhibitors Approved for Clinical Use” (PLoS ONE, 2014)

How the values were obtained:
Assay in all cases: Kinase profiling in a biochemical assay panel (mobility shift assays and ELISA), %-inhibition at 1 μM; selectivity entropy
[1] = target: panel of more than 300 wild-type and mutant kinases (313 kinase panel) (Homo sapiens, UniProt O75116); conditions: kinase ROCK2; 1 μM
[2] = target: panel of more than 300 wild-type and mutant kinases (313 kinase panel) (Homo sapiens, UniProt Q14289)
[3] = target: panel of more than 300 wild-type and mutant kinases (313 kinase panel) (Homo sapiens, UniProt Q13164); conditions: kinase Erk5; compound at 1 μM
[4] = target: panel of more than 300 wild-type and mutant kinases (313 kinase panel) (Homo sapiens, UniProt O75676)
[5] = target: panel of more than 300 wild-type and mutant kinases (313 kinase panel) (Homo sapiens, UniProt P27361)
[6] = target: panel of more than 300 wild-type and mutant kinases (313 kinase panel) (Homo sapiens, UniProt P16234, V561D)
[7] = target: panel of more than 300 wild-type and mutant kinases (313 kinase panel) (Homo sapiens, UniProt P10721, V654A)
[8] = target: T1, panel of more than 300 wild-type and mutant kinases (313 kinase panel) (Homo sapiens, UniProt Q15831)
T1 sequence (Q15831 1-433): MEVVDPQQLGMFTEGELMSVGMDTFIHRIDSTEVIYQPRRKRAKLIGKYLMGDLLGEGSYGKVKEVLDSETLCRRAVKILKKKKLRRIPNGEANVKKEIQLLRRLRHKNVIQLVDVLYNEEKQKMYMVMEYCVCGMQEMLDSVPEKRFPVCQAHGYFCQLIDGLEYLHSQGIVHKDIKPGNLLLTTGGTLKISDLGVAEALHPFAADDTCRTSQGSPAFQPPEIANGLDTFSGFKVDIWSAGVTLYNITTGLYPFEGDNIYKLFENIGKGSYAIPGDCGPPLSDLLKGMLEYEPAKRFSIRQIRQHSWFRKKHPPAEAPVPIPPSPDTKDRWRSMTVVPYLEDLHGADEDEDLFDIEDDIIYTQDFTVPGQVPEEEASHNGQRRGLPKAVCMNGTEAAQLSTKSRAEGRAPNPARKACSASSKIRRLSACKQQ

[9] = target: panel of more than 300 wild-type and mutant kinases (313 kinase panel) (Homo sapiens, UniProt Q06187)
[10] = target: panel of more than 300 wild-type and mutant kinases (313 kinase panel) (Homo sapiens, UniProt P10721, D816V)
[11] = target: panel of more than 300 wild-type and mutant kinases (313 kinase panel) (Homo sapiens, UniProt Q16620)
[12] = target: panel of more than 300 wild-type and mutant kinases (313 kinase panel) (Homo sapiens, UniProt P08581)
[13] = target: panel of more than 300 wild-type and mutant kinases (313 kinase panel) (Homo sapiens, UniProt Q13882); conditions: kinase BRK; 1 μM compound
[14] = target: panel of more than 300 wild-type and mutant kinases (313 kinase panel) (Homo sapiens, UniProt P49674); conditions: kinase CK1ε; 1 μM compound
[15] = target: panel of more than 300 wild-type and mutant kinases (313 kinase panel) (Homo sapiens, UniProt P48729)
[16] = target: panel of more than 300 wild-type and mutant kinases (313 kinase panel) (Homo sapiens, UniProt P22607); conditions: kinase FGFR3; compound at 1 μM
[17] = target: panel of more than 300 wild-type and mutant kinases (313 kinase panel) (Homo sapiens, UniProt Q15375); conditions: kinase EPHA7; compound at 1 μM
[18] = target: panel of more than 300 wild-type and mutant kinases (313 kinase panel) (Homo sapiens, UniProt P22607, K650M); conditions: kinase FGFR3(K650M); compound at 1 μM
[19] = target: panel of more than 300 wild-type and mutant kinases (313 kinase panel) (Homo sapiens, UniProt P68400); conditions: kinase CK2α1/β; 1 μM compound
[20] = kinase KIT(V654A), compound at 1 μM
[21] = kinase KIT(D816V), compound at 1 μM

| Compound | %-inhibition of ROCK2 [1] [%] | %-inhibition of PYK2 ([2]; kinase PYK2, 1 μM) [%] | %-inhibition of Erk5 [3] [%] | %-inhibition of MSK2 ([4]; kinase MSK2, 1 μM) [%] | %-inhibition of PDGFRα(V561D) ([6]; kinase PDGFRα(V561D), 1 μM) [%] | %-inhibition of KIT(V654A) [7, 20] [%] | %-inhibition of LKB1 ([8]; kinase LKB1, compound at 1 μM) [%] | %-inhibition, BTK ([9]; kinase BTK, 1 μM compound) [%] | %-inhibition of KIT(D816V) [10, 21] [%] | %-inhibition of TRKB ([11]; kinase TRKB, 1 μM) [%] | %-inhibition of MET ([12]; kinase MET, compound at 1 μM) [%] | %-inhibition, BRK [13] [%] | %-inhibition, CK1ε [14] [%] | %-inhibition, CK1α ([15]; kinase CK1α, 1 μM compound) [%] | %-inhibition of Erk1 ([5]; kinase Erk1, compound at 1 μM) [%] | %-inhibition of FGFR3 [16] [%] | %-inhibition of EPHA7 [17] [%] | %-inhibition of FGFR3(K650M) [18] [%] | %-inhibition, CK2α1/β [19] [%] | other results |
| --- | --- | --- | --- | --- | --- | --- | --- | --- | --- | --- | --- | --- | --- | --- | --- | --- | --- | --- | --- | --- |
| COc1cc(Nc2c(C#N)cnc3cc(OCCCN4CCN(C)CC4)c(OC)cc23)c(Cl)cc1Cl [bosutinib] | 28 | 89 | 3.35 | -2.27 | 64 | 8 | -5.27 | 97 | 78 | 62 | 10 | 35 |  |  |  |  |  |  |  | %-inhibition of Erk1 ([5]; 1 µM): 1.12% |
| CC(C)(C)c1nc(-c2cccc(NS(=O)(=O)c3c(F)cccc3F)c2F)c(-c2ccnc(N)n2)s1 [dabrafenib] | 14 | 56 | 0.144 |  | 51 | -3.17 | 4.34 | 60 | 9 | 86 | 27 | 98 | 10 | 13 | -1.62 | 4.27 | 13 | 7 |  |  |
| CO[C@H]1C[C@@H]2CC[C@@H](C)[C@@](O)(O2)C(=O)C(=O)N2CCCC[C@H]2C(=O)O[C@H]([C@H](C)C[C@@H]2CC[C@@H](OCCO)[C@H](OC)C2)CC(=O)[C@H](C)/C=C(\C)[C@@H](O)[C@@H](OC)C(=O)[C@H](C)C[C@H](C)/C=C/C=C/C=C/1C [everolimus] | -5.49 | 1.49 | -2.5 | -7 | -6 | -3.52 | -9 | 1.16 | -4.44 | -0.542 | -4 | -4.32 | -6.43 | -11 | -0.906 | -9 | -4 | 2.71 | -4.26 |  |
| O=S(=O)(c1cccc2cnccc12)N1CCCNCC1 [fasudil] |  | 1.79 | -3.32 | 15 | 9 | -4 | 6 | 1.51 | 4.75 | -2.66 | -4 | -6 | -4.62 |  | -3 | -2 | -5 | -0.618 | -4 |  |
| Cc1cn(-c2cc(NC(=O)c3ccc(C)c(Nc4nccc(-c5cccnc5)n4)c3)cc(C(F)(F)F)c2)cn1 [nilotinib] | -27 |  | -3.64 | 2.55 |  |  |  | 45 |  |  | -9 | 75 | 0.595 |  | 3.21 | -11 | 19 | -21 | 3.23 | %-inhibition of PYK2 ([2]; 1 µM): -63%; %-inhibition, CK1α ([15]; 1 µM): 2%; %-inhibition of PDGFRα(V561D) ([6]; 1 µM): 100%; %-inhibition of KIT(V654A) ([7]; 1 µM): 19%; %-inhibition of LKB1 ([8]; 1 µM): -6%; %-inhibition of KIT(D816V) ([10]; 1 µM): 43%; %-inhibition of TRKB ([11]; 1 µM): 56% |
| CNC(=O)c1cc(Oc2ccc(NC(=O)Nc3ccc(Cl)c(C(F)(F)F)c3)c(F)c2)ccn1 [regorafenib] | 2.65 | -0.496 | 16 | 2.43 | 101 |  | -5 | 2.55 | 40 | 74 | 2.12 | 20 | -6 | -7.56 | -2 | 97 | 84 | 101 | -9 |  |
| N#CC[C@H](C1CCCC1)n1cc(-c2ncnc3[nH]ccc23)cn1 [ruxolitinib] | 87 | 68 | 6 |  | 18 | -10 |  |  | 36 | 88 |  | -4 | 7.39 | 1.86 | -2.29 | 15 | 7.51 | 16 | -6 | %-inhibition of MSK2 ([4]; 1 µM): 4.62%; %-inhibition of LKB1 ([8]; 1 µM): 0.546%; %-inhibition, BTK ([9]; 1 µM): -6%; %-inhibition of MET ([12]; 1 µM): -3.54% |
